Test system: bacteria
Assay: Bacteria resistance testing: bacteria counts (spread plate, R2A agar) in infected electrodeposition ultrafiltrate permeate
Type: cell-based
Details: for Bacteria Count 3 day: plated at 3 days; for Bacteria Count 7 day: plated at 7 days; for Bacteria Count 10 day: plated at 10 days
Procedure: Infected ultrafiltrate from an online electrodeposition bath tank (containing E6100H, commercially available from PPG Industries, Inc.) having a bacterial count of 4.5×10^6 cfu/mL was used to inoculate filter-sterilized ultrafiltrate (“permeate”) collected from the same line. The infected ultrafiltrate was diluted by a factor of 10^4 into the sterile permeate. The infected permeate was added to reactors. The various acids listed below in the following Table 2 were prepared as 1 % solutions in water and tested at 2000, 1000, 500, 200, 100, and 50 ppm of active material. Reactors were rolled for 10 days at 32° C. and were plated for bacteria counts at 3, 7, and 10 days.
The enumeration of […] heterotrophs in the reactors utilized the standard spread plate method as described in Standard Methods for the Examination of Water and Wastewater, 1992, section 9215C. Bacterial counts were examined using R2A agar plates. 100 μL of a suitable dilution of sample was pipetted onto the surface of the media and spread with an alcohol and flame sterilized glass rod. The plates were inverted and incubated for 3 days at 32° C. with periodic examination. Colony forming units were counted on a New Brunswick Bactronic Colony Counter. A target of 30 to 300 cfu per plate was considered a valid count.

[1] = acid at 50 ppm of active material (boric acid: 8.9 ppm B), 32° C.
[2] = acid at 100 ppm of active material (boric acid: 17.8 ppm B), 32° C.
[3] = acid at 200 ppm of active material (boric acid: 35.5 ppm B), 32° C.
[4] = acid at 500 ppm of active material (boric acid: 89 ppm B), 32° C.
[5] = acid at 1000 ppm of active material (boric acid: 177.5 ppm B), 32° C.
[6] = acid at 2000 ppm of active material (boric acid: 355 ppm B), reactors rolled at 32° C.

| SMILES | Bacteria Count 3 day [1] | Bacteria Count 7 day [1] | Bacteria Count 10 day [1] | Bacteria Count 3 day [2] | Bacteria Count 7 day [2] | Bacteria Count 10 day [2] | Bacteria Count 3 day [3] | Bacteria Count 7 day [3] | Bacteria Count 10 day [3] | Bacteria Count 3 day [4] | Bacteria Count 7 day [4] | Bacteria Count 10 day [4] | Bacteria Count 3 day [5] | Bacteria Count 7 day [5] | Bacteria Count 10 day [5] | Bacteria Count 3 day [6] | Bacteria Count 7 day [6] | Bacteria Count 10 day [6] | levels at which the growth of bacteria is retarded (as compared to lactic acid in an analogous composition, summary of Table 2) [ppm] |
| --- | --- | --- | --- | --- | --- | --- | --- | --- | --- | --- | --- | --- | --- | --- | --- | --- | --- | --- | --- |
| CC(O)C(=O)O (stereo not shown) [Lactic Acid, reference compound] | 9.2 × 10^5 | 4.4 × 10^7 | 3.8 × 10^7 | 8.8 × 10^5 | 4.4 × 10^7 | 2.4 × 10^6 | 1.5 × 10^6 | 1.6 × 10^7 | 1.2 × 10^7 | 1.6 × 10^7 | 4.0 × 10^7 | 2.8 × 10^6 | 9.6 × 10^6 | 3.2 × 10^7 | <4.0 × 10^5 | 2.1 × 10^6 | 4.8 × 10^7 | 1.1 × 10^7 |  |
| OB(O)O [Boric Acid] | 8.8 × 10^2 | 4.6 × 10^6 | 4.0 × 10^3 | 3.0 × 10^2 | 5.6 × 10^5 | 1.4 × 10^7 | 3.6 × 10^2 | 2.8 × 10^3 | 2.0 × 10^6 | <4.0 × 10^1 | <4.0 × 10^1 | <4.0 × 10^1 | <4.0 × 10^1 | <4.0 × 10^1 | <4.0 × 10^1 | <4.0 × 10^1 | <4.0 × 10^1 | <4.0 × 10^1 | ≥ 500 |

From US20030034248A1, “Electrodeposition baths containing boron-containing compounds and methods related thereto” (priority 2001, published 2003)
